Measurements: publication PMC9820345, “Metal Complexes of a 5-Nitro-8-Hydroxyquinoline-Proline Hybrid with Enhanced Water Solubility Targeting Multidrug Resistant Cancer Cells” (International Journal of Molecular Sciences, 2022)
Like-named read-outs stand apart in the source and are kept apart here.

Experiments:
[1] = Proton dissociation constants (pKa) of the ligand by pH-potentiometric, UV-vis and 1H NMR titrations; format: physicochemical; details: for pKa: 25.0 °C
Method: Characterization of the protonation/deprotonation equilibrium processes of a bioactive molecule is important to reveal its actual chemical form and charge at a given pH. The proton dissociation constant (Ka) is a key physico-chemical parameter since it has an impact on many biopharmaceutical characteristics such as lipophilicity, water solubility, and albumin binding, which in turn directly influences pharmacokinetics. The pKa values of the protonated HQNO2-L-Pro were determined by pH-potentiometric, UV-vis (Figure 1a), and ^1H NMR spectroscopic titrations (Table 1).
The pH-potentiometric measurements were carried out at 25.0 ± 0.1 °C in water in the pH range between 2.0 and 11.5 at a constant ionic strength of 0.2 M KNO3. The titrations were performed in a carbonate-free KOH solution (0.20 or 0.10 M). The exact concentrations of HNO3, HCl, and KOH solutions were always determined by pH-potentiometric titrations. An Orion 710A pH-meter equipped with a Metrohm combined electrode (type 6.0234.100) and a Metrohm 665 Dosimat burette were used for the measurements. […] The average water ionization constant (pKw) was determined as 13.76 ± 0.01, which is in good agreement with the literature data. In the case of the titrations in 30% (v/v) DMSO/H2O, the calibration of the pH-potentiometric system was conducted as in our former works. Samples were degassed by bubbling purified argon through them for about 10 min prior to the measurements, and the inert gas was also passed over the solutions during the titrations. Stoichiometry of the species and their equilibrium constants were obtained similarly to that performed in our previous works, with the use of computer program Hyperquad2013 [50].
(§1) An Agilent Cary 8454 diode array spectrophotometer (Santa Clara, CA, USA) was used to obtain UV-vis spectra in the wavelength range 200–1000 nm, while spectra were recorded for the Fe(II)-containing samples using an Avantes (Avantes B.V., Apeldoorn, The Nederlands) AvaSpec-ULS2048CL-EVO spectrometer with an AvaLight-DHc light source and FDP-7UVIR200-2-VAR transmission dip probe. The titrations for the Fe(II)-containing samples were performed in a laboratory glove box (GP(Campus), Jacomex) (O2 content ≤ 1 ppm). The path length (ℓ) was 1 cm in most cases (the actual ℓ is always indicated in the legends of the figures). The concentrations of the ligands and complexes were between 40 and 200 µM, and 0.2 M KNO3 for the organometallic complexes or 0.1 M KCl for the Fe(II/III), Cu(II), and Zn(II) complexes were used to adjust the constant ionic strength. For HSA containing samples, complex concentrations were 50 µM, and 0.5, and 2 equiv. biomolecules were added for kinetic studies, respectively. For HSA model containing samples, complex concentrations were 50 µM, and the model concentrations were 0–150 µM and 0–500 µM, respectively, and the pH was 7.4 (PBS’). Spectra were always background and baseline corrected. The computer program HypSpec was used to obtain stability constants. Hydrolysis constants of the Fe(III), Fe(II), RuCym, and RhCp* species were included in the speciation models (see Table S4 with the data taken from References).
The Bruker Avance III HD Ascend 500 Plus instrument (Billerica, MA, USA) was used for NMR studies. ^1H NMR spectroscopic measurements were carried out with a WATERGATE water suppression pulse scheme in the presence of 10% (v/v) D2O/H2O in most cases. DSS internal standard was added to samples to obtain reference peaks. ^1H NMR titrations were carried out for the ligand alone, and for the organometallic complexes in the presence of 0.2 M KNO3. With the AHA and FHA model peptides, the measurements were performed at pH 7.4 (PBS’) at 0.5 or 1 mM metal complex concentrations, and 1:1, 1:2 or 2:1 peptide-to-metal complex ratios were applied. NMR titrations were also performed for the Zn(II)-ligand systems using 0.1 M KCl ionic strength. […]

[2] = Formation constants of Fe(III) complexes by UV-vis spectrophotometric titrations; format: physicochemical; details: I = 0.1 M KCl, 25.0 °C
Method: UV-vis titrations were performed to determine the formation (overall stability) constants (β) for the complexes of HQNO2-L-Pro formed with Fe(III) and Fe(II) ions (Figures S10 and S11). In the latter case, titrations were performed in a laboratory glove box. The calculations were complicated by the overlapping feature of the ligand bands and the charge transfer bands of the complexes. Based on the absorption spectra Figures S10a and S11a), formation of mono, bis, and tris complexes were found in both chemical systems; obtained constants are collected in Table 2. […] Based on the concentration distribution diagrams (see Figure S10b for Fe(III) and Figure S11b for Fe(II)), it can be concluded that the tris complexes are the dominant species at pH 7.4 in the case of Fe(III), while with Fe(II) both tris and bis-ligand species are formed under the conditions of the titrations.
as §1, with “The computer program HypSpec was used to obtain stability constants. Hydrolysis constants of the Fe(III), Fe(II), RuCym, and RhCp* species were included in the speciation models (see Table S4 with the data taken from References).” left out

[3] = Cyclic voltammetry of the iron complexes; format: physicochemical; details: for E1/2 vs. NHE: iron(III/II)-ligand (1:3), pH 7.40
HSA = target: T1, HSA (Homo sapiens, UniProt P02768); experiment: Time course of complex-HSA interaction (UV-vis); format: binding; details: complex–HSA (1:1 or 2:1); pH 7.4
T1 construct: purchased Sigma-Aldrich (Darmstadt, Germany) A8763
Method: First, changes in the UV-vis spectra were followed in time in the complex—HSA (1:1 or 2:1) system, and it was concluded that the equilibrium can be reached within ca. 30 min for the RhCp* complex (Figure S25). […] The binding of the RuCym complex to HSA without the release of the bidentate ligand was also confirmed by CZE measurement (Figure S27). Most likely a donor atom of the protein binds at the coordination site of the co-ligand.
An Agilent Cary 8454 diode array spectrophotometer (Santa Clara, CA, USA) was used to obtain UV-vis spectra in the wavelength range 200–1000 nm, while spectra were recorded for the Fe(II)-containing samples using an Avantes (Avantes B.V., Apeldoorn, The Nederlands) AvaSpec-ULS2048CL-EVO spectrometer with an AvaLight-DHc light source and FDP-7UVIR200-2-VAR transmission dip probe. The titrations for the Fe(II)-containing samples were performed in a laboratory glove box (GP(Campus), Jacomex) (O2 content ≤ 1 ppm). The path length (ℓ) was 1 cm in most cases (the actual ℓ is always indicated in the legends of the figures). The concentrations of the ligands and complexes were between 40 and 200 µM, and 0.2 M KNO3 for the organometallic complexes or 0.1 M KCl for the Fe(II/III), Cu(II), and Zn(II) complexes were used to adjust the constant ionic strength. […]

[4] = n-Octanol/water distribution coefficients, shake-flask method; format: physicochemical; details: pH 7.40 (20 mM phosphate buffer); 100 mM chloride; 25.0 °C
Method: The traditional shake-flask method was used to obtain distribution coefficients of the ligands as well as of the complexes in n-octanol/buffered aqueous solution (20 mM phosphate, pH = 7.40 or 10 mM MES, pH 5.50) at different chloride ion concentrations (4, 24 and 100 mM) using UV-vis spectrophotometry (Agilent Cary 8454 diode array spectrophotometer, Santa Clara, CA, USA) for the analysis. The measurement and data evaluation were performed as described in our former work.

T1 sequence (P02768 25-609): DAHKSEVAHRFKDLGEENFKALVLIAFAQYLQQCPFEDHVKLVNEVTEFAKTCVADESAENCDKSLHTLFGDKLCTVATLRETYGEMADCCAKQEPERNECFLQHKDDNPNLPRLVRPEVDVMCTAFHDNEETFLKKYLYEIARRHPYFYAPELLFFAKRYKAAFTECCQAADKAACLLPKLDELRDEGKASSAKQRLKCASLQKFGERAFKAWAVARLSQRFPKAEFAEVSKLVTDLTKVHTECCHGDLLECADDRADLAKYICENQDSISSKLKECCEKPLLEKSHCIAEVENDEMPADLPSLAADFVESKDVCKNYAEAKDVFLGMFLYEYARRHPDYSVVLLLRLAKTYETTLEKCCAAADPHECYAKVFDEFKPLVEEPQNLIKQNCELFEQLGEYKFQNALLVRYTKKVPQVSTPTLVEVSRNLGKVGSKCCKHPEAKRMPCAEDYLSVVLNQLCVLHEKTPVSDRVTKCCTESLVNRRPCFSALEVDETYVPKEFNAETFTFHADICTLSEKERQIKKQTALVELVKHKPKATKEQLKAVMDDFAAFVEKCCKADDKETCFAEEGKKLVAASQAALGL

O=C(O)[C@@H]1CCCN1Cc1cc([N+](=O)[O-])c2cccnc2c1O [HQNO2-L-Pro, (2S)-1-((8-hydroxy-5-nitroquinolin-7-yl)methyl)pyrrolidin-1-ium-2-carboxylate]
pKa ([1]; 0.10 M KCl, UV-vis, I = 0.10 M KCl, cligand 40 μM, read-out: pKa (NProH+)): 10.75 ± 0.03 | pKa ([1]; 0.10 M KCl, UV-vis, I = 0.10 M KCl, cligand 40 μM, read-out: pKa (OH)): 5.43 ± 0.03 | pKa ([1]; 0.20 M KNO3, 1H NMR, I = 0.20 M KNO3, cligand 1000 μM, read-out: pKa (NProH+)): > 10.5 | pKa ([1]; 0.20 M KNO3, 1H NMR, I = 0.20 M KNO3, cligand 1000 μM, read-out: pKa (OH)): 5.56 ± 0.03 | pKa ([1]; 0.20 M KNO3, UV-vis, I = 0.20 M KNO3, cligand 40 μM, read-out: pKa (NProH+)): 10.78 ± 0.03 | pKa ([1]; 0.20 M KNO3, UV-vis, I = 0.20 M KNO3, cligand 40 μM, read-out: pKa (OH)): 5.5 ± 0.03 | fraction of H2L ([1]; pH 5.5): 47% | fraction of HL− ([1]; pH 5.5): 53% | pKa ([1]; water, 0.20 M KNO3, pH-potentiometry, I = 0.20 M KNO3, cligand 1700 μM, read-out: pKa (NProH+)): 10.68 ± 0.07 | pKa ([1]; water, 0.20 M KNO3, pH-potentiometry, I = 0.20 M KNO3, cligand 1700 μM, read-out: pKa (OH)): 5.57 ± 0.09 | logβ [M(HL)2] [2]: 38.76 ± 0.03 | logβ [M(HL)3] [2]: 55.66 ± 0.03 | logβ [M(HL)] [2]: 19.75 ± 0.03 | E1/2 vs. NHE ([3]; scan rate 0.005 V/s): +0.207 V | E1/2 vs. NHE ([3]; scan rate 0.010 V/s): +0.216 V | E1/2 vs. NHE ([3]; scan rate 0.015 V/s): +0.218 V | E1/2 vs. NHE ([3]; scan rate 0.020 V/s): +0.217 V | E1/2 vs. NHE ([3]; scan rate 0.025 V/s): +0.214 V | formal potential E'1/2 of the Fe(III)/Fe(II) redox pair of the iron complexes ([3]; pH 7.4, 1:3 metal-to-ligand ratio, ciron = 0.5 mM): +215 ± 5 mV vs. NHE

CC1=C(C)[C](C)([Rh]([Cl])[O]c2c(C[NH+]3CCC[C@H]3C(=O)O)cc([N+](=O)[O-])c3cccnc23)C(C)=C1C.[Cl-] [RhCp*-HQNO2-L-Pro, [RhCp*(HQNO2-L-Pro)Cl]Cl]
time to reach equilibrium with HSA (HSA): ≤ 30 min

Cc1ccc(C(C)C)cc1.O=C(O)[C@@H]1CCC[NH+]1Cc1cc([N+](=O)[O-])c2ccc[n+]3c2c1[O][Ru-]3[Cl].[Cl-] [RuCym-HQNO2-L-Pro, [RuCym(HQNO2-L-Pro)Cl]Cl]
log D7.4 [4]: +0.06 ± 0.01
